Measured values: the supplement of paper PMC10307832

Columns and labels:
Assay in all cases: relative viability (nuclei count vs DMSO), 5 days (fraction); higher = more cells survive
Ibrutinib + Pictilisib = compound: C=CC(=O)N1CCC[C@@H](n2nc(-c3ccc(Oc4ccccc4)cc3)c3c(N)ncnc32)C1 [Ibrutinib] + CS(=O)(=O)N1CCN(Cc2cc3nc(-c4cccc5[nH]ncc45)nc(N4CCOCC4)c3s2)CC1 [Pictilisib] (partner 1 µM)
Method in brief: (§1)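 Lung cancer cell lines in 1536-well plates got either a single drug or a fixed anchor-drug dose together with five library-drug doses (not always all listed) in √10 steps, by pin tool, on the day after seeding. Nuclei were counted after 5 days, and relative viability is the treated-to-vehicle ratio of nuclei counts. Values are medians of duplicate plates.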

PAC-1 + Palbociclib = compound: C=CCc1cccc(/C=N/NC(=O)CN2CCN(Cc3ccccc3)CC2)c1O [PAC-1] + CC(=O)c1c(C)c2cnc(Nc3ccc(N4CCNCC4)cn3)nc2n(C2CCCC2)c1=O [Palbociclib] (partner 0.5 µM)
Method in brief: as §1

PAC-1 + Decitabine = compound: C=CCc1cccc(/C=N/NC(=O)CN2CCN(Cc3ccccc3)CC2)c1O [PAC-1] + Nc1ncn([C@H]2C[C@H](O)[C@@H](CO)O2)c(=O)n1 [Decitabine] (partner 2 µM)
Method in brief: as §1

PAC-1 + Olaparib = compound: C=CCc1cccc(/C=N/NC(=O)CN2CCN(Cc3ccccc3)CC2)c1O [PAC-1] + O=C(c1cc(Cc2n[nH]c(=O)c3ccccc23)ccc1F)N1CCN(C(=O)C2CC2)CC1 [Olaparib] (partner 8 µM)
Method in brief: as §1

## SK-MES-1
Ibrutinib + Pictilisib; first compound 0.005 µM
  relative viability: 0.307
Ibrutinib + Pictilisib; first compound 0.01581 µM
  relative viability: 0.274
Ibrutinib + Pictilisib; first compound 0.05 µM
  relative viability: 0.254
Ibrutinib + Pictilisib; first compound 0.1581 µM
  relative viability: 0.342
Ibrutinib + Pictilisib; first compound 0.5 µM
  relative viability: 0.198
PAC-1 + Palbociclib; first compound 0.02 µM
  relative viability: 0.336
PAC-1 + Palbociclib; first compound 0.06325 µM
  relative viability: 0.311
PAC-1 + Palbociclib; first compound 0.2 µM
  relative viability: 0.315
PAC-1 + Palbociclib; first compound 2 µM
  relative viability: 0.308
PAC-1 + Decitabine; first compound 0.02 µM
  relative viability: 0.432
PAC-1 + Decitabine; first compound 0.06325 µM
  relative viability: 0.389
PAC-1 + Decitabine; first compound 0.2 µM
  relative viability: 0.325
PAC-1 + Decitabine; first compound 2 µM
  relative viability: 0.322
PAC-1 + Olaparib; first compound 0.02 µM
  relative viability: 0.717
PAC-1 + Olaparib; first compound 0.06325 µM
  relative viability: 0.711
PAC-1 + Olaparib; first compound 0.2 µM
  relative viability: 0.635
PAC-1 + Olaparib; first compound 2 µM
  relative viability: 0.437
